{"source": "ChEMBL document CHEMBL1177693", "about": "“Antimalarials from nature” (Bioorg Med Chem, 2009)", "key": {"Plasmodium falciparum [1]": {"system": "Plasmodium falciparum", "experiment": "Antimalarial activity against chloroquine-sensitive Plasmodium falciparum 3D7", "format": "functional, organism-based"}, "Plasmodium falciparum [2]": {"system": "Plasmodium falciparum", "experiment": "(§1) Inhibition of Plasmodium falciparum FabG", "details": "concentration not given here"}, "[3]": {"target": "T1, Enoyl-acyl-carrier protein reductase (Plasmodium falciparum) (UniProt Q965D5)", "T1 sequence (whole entry)": "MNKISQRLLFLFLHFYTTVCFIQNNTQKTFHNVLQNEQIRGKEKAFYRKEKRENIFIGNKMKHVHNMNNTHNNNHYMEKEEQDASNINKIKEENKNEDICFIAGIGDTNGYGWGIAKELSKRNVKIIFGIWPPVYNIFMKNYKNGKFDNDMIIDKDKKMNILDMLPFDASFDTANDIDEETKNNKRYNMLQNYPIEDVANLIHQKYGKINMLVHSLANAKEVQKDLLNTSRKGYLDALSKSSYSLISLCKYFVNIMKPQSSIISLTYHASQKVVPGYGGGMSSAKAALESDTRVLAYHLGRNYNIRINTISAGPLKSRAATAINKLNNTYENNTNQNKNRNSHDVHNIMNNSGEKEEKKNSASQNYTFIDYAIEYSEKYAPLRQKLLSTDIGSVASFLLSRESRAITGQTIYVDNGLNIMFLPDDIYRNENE", "experiment": "(§2) Inhibition of Plasmodium falciparum Fabl"}, "[4]": {"experiment": "as §1"}, "[5]": {"target": "T2, Enoyl-acyl-carrier protein reductase (Plasmodium falciparum, UniProt Q965D5)", "T2 sequence (Q965D5 whole entry)": "T1 sequence (whole entry)", "experiment": "as §2"}, "Plasmodium falciparum [6]": {"system": "Plasmodium falciparum", "experiment": "Antimalarial activity against chloroquine-susceptible Plasmodium falciparum D6", "format": "functional, organism-based"}, "Plasmodium falciparum [7]": {"system": "Plasmodium falciparum", "experiment": "Antimalarial activity against chloroquine-resistant Plasmodium falciparum W2", "format": "functional, organism-based"}, "Plasmodium falciparum [8]": {"system": "Plasmodium falciparum", "experiment": "Antimalarial activity against Plasmodium falciparum FCA 20", "format": "functional, organism-based"}, "Plasmodium falciparum [9]": {"system": "Plasmodium falciparum", "experiment": "Antimalarial activity against Plasmodium falciparum FCB1-R", "format": "functional, organism-based"}, "Plasmodium falciparum [10]": {"system": "Plasmodium falciparum", "experiment": "Antimalarial activity against Plasmodium falciparum W2", "format": "functional, organism-based"}, "Plasmodium falciparum [11]": {"system": "Plasmodium falciparum", "experiment": "Antimalarial activity against Plasmodium falciparum after 72 hrs", "format": "functional, organism-based"}, "Plasmodium falciparum [12]": {"system": "Plasmodium falciparum", "experiment": "Antimalarial activity against Plasmodium falciparum after 32 hrs", "format": "functional, organism-based"}, "Plasmodium falciparum [13]": {"system": "Plasmodium falciparum", "experiment": "Antimalarial activity against Plasmodium falciparum after 48 hrs", "format": "functional, organism-based"}, "Plasmodium falciparum [14]": {"system": "Plasmodium falciparum", "experiment": "Antimalarial activity against multidrug-resistant Plasmodium falciparum K1 infected in erythrocytes", "format": "functional, organism-based"}, "Plasmodium falciparum [15]": {"system": "Plasmodium falciparum", "experiment": "Antimalarial activity against drug-susceptible Plasmodium falciparum NF54 infected in erythrocytes", "format": "functional, organism-based"}, "Plasmodium falciparum [16]": {"system": "Plasmodium falciparum", "experiment": "Antimalarial activity against Plasmodium falciparum FCA", "format": "functional, organism-based"}, "Plasmodium falciparum [17]": {"system": "Plasmodium falciparum", "experiment": "Antimalarial activity against chloroquine-sensitive Plasmodium falciparum D10", "format": "functional, organism-based"}, "Plasmodium falciparum [18]": {"system": "Plasmodium falciparum", "experiment": "Antimalarial activity against Plasmodium falciparum D6", "format": "functional, organism-based"}, "Plasmodium falciparum [19]": {"system": "Plasmodium falciparum", "experiment": "Antimalarial activity against Plasmodium falciparum FCR3F86", "format": "functional, organism-based"}, "Plasmodium falciparum [20]": {"system": "Plasmodium falciparum", "experiment": "Antimalarial activity against chloroquine-sensitive Plasmodium falciparum", "format": "functional, organism-based"}, "Plasmodium falciparum [21]": {"system": "Plasmodium falciparum", "experiment": "Antimalarial activity against chloroquine-resistant Plasmodium falciparum", "format": "functional, organism-based"}, "Plasmodium falciparum [22]": {"system": "Plasmodium falciparum", "experiment": "Antimalarial activity against Plasmodium falciparum infected in perorally dosed mice (Mus musculus) administered for 4 days", "format": "functional", "details": "po, 96 h"}, "Plasmodium falciparum [23]": {"system": "Plasmodium falciparum", "experiment": "Antimalarial activity against Plasmodium falciparum infected in intravenously dosed mice (Mus musculus) administered for 4 days", "format": "functional", "details": "iv, 96 h"}, "[24]": {"experiment": "Cytotoxicity against erythrocytes assessed as morphological changes", "format": "cell-based", "details": "Erythrocyte"}, "Plasmodium falciparum [25]": {"system": "Plasmodium falciparum", "experiment": "Antimalarial activity against Plasmodium falciparum infected in erythrocytes", "format": "functional, organism-based"}, "Plasmodium falciparum [26]": {"system": "Plasmodium falciparum", "experiment": "Antimalarial activity against Plasmodium falciparum 3D7", "format": "functional, organism-based"}}, "data": [{"smiles": "COc1cc(O)c2c(c1)O[C@H](c1ccccc1)CC2=O", "note": "[PINOSTROBIN]", "values": [{"measurement": "IC50", "setting": "Plasmodium falciparum [1]", "result": "> 100000", "unit": "nM"}]}, {"smiles": "C=C1C(=O)OC[C@H]1[C@H](O)/C=C(\\C)CC(=O)C=C(C)C", "values": [{"measurement": "inhibition", "setting": "Plasmodium falciparum [2]", "result": 25, "unit": "%"}, {"measurement": "fold change (FC)", "setting": "[3]", "result": 5}]}, {"smiles": "C=C1C(=O)OC[C@H]1[C@@H](/C=C(\\C)CC(=O)C=C(C)C)OC(C)=O", "values": [{"measurement": "IC50", "setting": "[4]", "result": 20, "unit": "µg/mL"}, {"measurement": "IC50", "setting": "[5]", "result": 65300, "unit": "nM"}]}, {"smiles": "CO[C@H]1C[C@@H]([C@@H](O)[C@@](C)(OC)[C@H](C)OC)O[C@]2(O[C@](C)([C@H]3CC[C@@H]([C@H]4CC[C@H]([C@H]5O[C@](C)(O)[C@H](C)[C@@H](O)[C@@H]5C)O4)O3)[C@H](OC)[C@H]2C)[C@H]1C", "values": [{"measurement": "IC50", "setting": "Plasmodium falciparum [6]", "result": 0.1, "unit": "µg/mL"}, {"measurement": "IC50", "setting": "Plasmodium falciparum [7]", "result": 0.1, "unit": "µg/mL"}]}, {"smiles": "C=Cc1c[n+]2c(c(O)c1C[C@H]1c3[nH]c4ccccc4c3CCN1C)-c1[nH]c3c([C@H]4CCCN4C)c(O)ccc3c1CC2", "note": "[CHRYSOPENTAMINE]", "values": [{"measurement": "IC50", "setting": "Plasmodium falciparum [8]", "result": 500, "unit": "nM"}, {"measurement": "IC50", "setting": "Plasmodium falciparum [9]", "result": 500, "unit": "nM"}, {"measurement": "IC50", "setting": "Plasmodium falciparum [10]", "result": 500, "unit": "nM"}]}, {"smiles": "CC(C)=CCC/C(C)=C/CC/C(C)=C/CC[C@@]1(C)[C@H](CCCO)/C(=C(/C)C=O)CC[C@]1(C)O", "note": "[IRIDAL]", "values": [{"measurement": "IC50", "setting": "Plasmodium falciparum [11]", "result": 1.8, "unit": "µg/mL"}, {"measurement": "IC50", "setting": "Plasmodium falciparum [12]", "result": 14, "unit": "µg/mL"}, {"measurement": "IC50", "setting": "Plasmodium falciparum [13]", "result": 26, "unit": "µg/mL"}]}, {"smiles": "COc1cc(/C=C2/Cc3c(OC(C)=O)cc(OC(C)=O)cc3O2)cc(OC)c1OC(C)=O", "values": [{"measurement": "IC50", "setting": "Plasmodium falciparum [14]", "result": 7, "unit": "nM"}, {"measurement": "IC50", "setting": "Plasmodium falciparum [15]", "result": 180, "unit": "nM"}]}, {"smiles": "C=C1C(=O)O[C@@H]2/C=C(/C)C(=O)/C=C/[C@](C)(O)C[C@@H](OC(=O)C(C)C)[C@@H]12", "note": "[TAGITININ C]", "values": [{"measurement": "IC50", "setting": "Plasmodium falciparum [16]", "result": 0.33, "unit": "µg/mL"}]}, {"smiles": "COc1cc(O)cc2c1c(=O)c1ccccc1n2C", "note": "[TEGERRARDIN A]", "values": [{"measurement": "IC50", "setting": "Plasmodium falciparum [17]", "result": 12300, "unit": "nM"}]}, {"smiles": "Cc1cc(=O)c(O)cc2c1C[C@H]1CC(C)(C)/C=C/C[C@@]3(C)Oc4cc(O)c(=O)cc(C)c4C[C@@H]3C[C@H](O)[C@]1(C)O2", "note": "[PYCNIDIONE]", "values": [{"measurement": "IC50", "setting": "Plasmodium falciparum [18]", "result": 750, "unit": "nM"}, {"measurement": "IC50", "setting": "Plasmodium falciparum [19]", "result": 280, "unit": "nM"}, {"measurement": "IC50", "setting": "Plasmodium falciparum [10]", "result": 370, "unit": "nM"}]}, {"smiles": "Cc1c2c(cc3c1C(=O)C=C(C(C)C)C3=O)C(C)(C)CCC2", "note": "[12,16-DIDEOXY AEGYPTINONE B]", "values": [{"measurement": "IC50", "setting": "Plasmodium falciparum [20]", "result": 1.3, "unit": "µg/mL"}, {"measurement": "IC50", "setting": "Plasmodium falciparum [21]", "result": 1.4, "unit": "µg/mL"}]}, {"smiles": "C[C@H]1[C@@H](CC(COC(=O)c2cc[n+]([O-])cc2)C[C@H]2O[C@@H]3O[C@]4(C)CC[C@H]5[C@H](C)CC[C@@H]([C@H]2C)[C@@]35OO4)O[C@@H]2O[C@]3(C)CC[C@H]4[C@H](C)CC[C@@H]1[C@@]24OO3", "note": "(some centres not stated)", "values": [{"measurement": "ED50", "setting": "Plasmodium falciparum [22]", "result": 2, "unit": "mg/kg"}, {"measurement": "ED50", "setting": "Plasmodium falciparum [23]", "result": 0.8, "unit": "mg/kg"}]}, {"smiles": "CC(C)c1ccc2c(c1)CC[C@H]1[C@](C)(CO)CCC[C@]21C", "note": "[POMIFERIN A]", "values": [{"measurement": "IC50", "setting": "[24]", "result": 28000, "unit": "nM"}, {"measurement": "IC50", "setting": "Plasmodium falciparum [25]", "result": 25600, "unit": "nM"}]}, {"smiles": "CCCCCCCc1cc(/C=C2\\N=C(c3ccc[nH]3)C=C2OC)[nH]c1C", "note": "[HEPTYL PRODIGIOSIN]", "values": [{"measurement": "IC50", "setting": "Plasmodium falciparum [26]", "result": 70, "unit": "nM"}]}]}
